This note sets out measurements from patent EP1858912B1, “COMPOUNDS FOR REDUCING AGGREGATION OF AMYLOID BETA-PEPTIDE” (Alphabeta AB, priority 2005, dated 2012).

Where a SMILES comes first, the peptide text is derived from it. Bridges are numbered along the chain shown (N, C = ends). Roman numbers before positions name the chains, in order. [ ]: non-standard residue; d: D form. Dab = NCC[C@H](N)C(=O)O

Assay [1] has as its system Aβ(12-28). Put plainly: Circular dichroism spectroscopy of Aβ secondary structure. The note with it: 1:1 molar ratio, sodium phosphate buffer pH 7, 30% (v/v) trifluoroethanol, 20°C; compared with Aβ(12-28) alone; ligand spectrum subtracted. The assay is classed as biochemical. On the procedure:
Compounds described herein can be tested for their ability to affect the secondary structure of an Aβ peptide. As an example, addition of ligands to Aβ(1-40) or Aβ(12-28) in solution increased the helical content of Aβ peptides, as measured by circular dichroism (CD) spectroscopy. This is evidenced by a decrease in molar ellipticity at 208 and 222 nm, and an increase in molar ellipticity at 190-195 nm (an example is shown in Fig. 6). In these experiments, Aβ peptides (concentration about 20 µM to 100 µM) were mixed with ligands in ligand/Aβ molar ratios ranging between 1 and 10. The measurements were performed in phosphate buffer (as described below for thioflavin T measurements) or in phosphate buffer containing 30% trifluoroethanol. The samples were incubated at 37°C with or without shaking before measurements. CD measurements were performed at room temperature in a Jasco 810 instrument using a 1 mm cuvette (sample volume 200-300 µl). For each sample, three spectra were accumulated. Spectra were measured between 260 and 185 nm, and the spectra of buffer and ligands alone were subtracted from the spectra of the mixtures. Molar ellipticity values were calculated using the recorded spectra and the peptide concentrations, and expressed in kdeg x cm^2/dmol. […]
(In general: Circular dichroism is the unequal absorption of left and right circularly polarised light.)

Assay [2] has as its system Aβ(1-40). Kind of assay: Tryptophan fluorescence emission of ligand (binding to Aβ). The note with it: excitation 280 nm; for emission maximum: sodium phosphate buffer pH 7, 30% (v/v) trifluoroethanol, 20°C. On the procedure: (§1) In these experiments, shifts in fluorescence emission were used to indicate binding. In these experiments, ligand 3 (about 10 µM) was dissolved in sodium phosphate buffer, pH 7, with or without trifluoroethanol present. Fluorescence was measured in a Hitachi F-4000 spectrophotometer, and emission was measured between 300 and 430 nm after excitation at 280 nm.
(§2) When Aβ(1-40) or Aβ(12-28) was added to a solution containing ligand 3, the fluorescence yield was increased (e.g., Fig 7) and the wavelength at maximum emission was shifted from about 348 nm to 344 nm.

Assay [3] has as its system Aβ(12-28). The description is as above. The following applies: after addition of Aβ(12-28); excitation 280 nm. The procedure: as §1, §2
In assay [4] the test system is Aβ(1-40). Put plainly: Thioflavin T fluorescence assay of Aβ fibril formation. It counts as biochemical. The procedure:
Fibril formation of Aβ(1-40) or Aβ(12-28) with and without the presence of the ligands was assessed by the fibril-binding dye thioflavin T (ThT). Solutions containing Aβ peptides in concentrations from about 20 µM to 200 µM without ligand present, or at different peptide/ligand ratios were prepared in 10 mM sodium phosphate buffer, pH 7. The samples were incubated at 37°C under constant gentle shaking. At different time points aliquots were removed and ThT measurements performed using 10 µM ThT in 10 mM sodium phosphate buffer, pH 6, containing 150mMNaCl.
The samples were incubated for 10-15 minutes in the dark before ThT fluorescence measurements were made. Fluorescence was measured using a FarCyte™ (Tecan) instrument with excitation at 440 nm and emission at 480 nm. All samples were measured in duplicates.

For assay [5], the system named is Drosophila melanogaster express Aβ1-42 in neurons. Kind of assay: Longevity in Drosophila model of Alzheimer's disease. It counts as in vivo. An excerpt:
A model of Alzheimer's disease was used in which Drosophila melanogaster express Aβ1-42 in neurons (Crowther et al., 2005, Neuroscience 132:123-135).

Assay [6] relates to wild type Drosophila (WIII8) that do not express Aβ(1-42). Kind of assay: Longevity in control flies not expressing Aβ. The assay is classed as in vivo. The note with it: 650 µM in the food; control flies not expressing Aβ (Fig. 13).

As for `CC(=O)N[C@H](CCC(=O)O)C(=O)N[C@@H](CCNC(=O)[C@@H](Cc1c[nH]c2ccccc12)NC(=O)[C@@H](N)CCCNC(=N)N)C(=O)O` [ligand 3, Ac-D-Glu-Dab(Arg-D-Trp)] (I: H-Arg-[dW] / II: Ac-[dE]-[Dab]-OH; amide I:C-II:2), the circular dichroism spectra entry in the assay with Aβ(12-28) [1] was “lowest value at 222 nm and highest value at 195 nm”. Besides, the fluorescence yield entry in the assay with Aβ(1-40) [2] (after addition of Aβ(1-40)) and in the assay with Aβ(12-28) [3] was “increased” in each case. Also, the “wavelength at maximum emission” value in the assay with Aβ(1-40) [2] (after addition of Aβ(1-40)) is listed as 344 nm; in the assay with Aβ(1-40) [2] (ligand about 10 µM before addition of Aβ), “about 348 nm”; with Aβ(12-28) [3] it was 344 nm. In addition, the emission maximum with Aβ(1-40) [2] (complex with Aβ(1-40), 1:1 molar ratio) was determined as 344 nm; in the assay with Aβ(1-40) [2] (ligand only), 348 nm. Moreover, in the assay with Aβ(1-40) [4] (1:1 ligand/peptide molar ratio, 1.5 hours at 37°C (Fig. 9)), the “Aβ(1-40) fibril formation, as measured by ThT binding” value is given as “effective in reducing Aβ(1-40) fibril formation”. Besides, the “ThT fluorescence induced by Aβ(1-40)” value with Aβ(1-40) [4] (different periods of incubation at 37°C, 10 mM sodium phosphate pH 7, 5:1 or 10:1 ligand/Aβ molar ratio (Fig. 8)) was “practically abolished”. Besides, the ThT fluorescence result is reported as “further reduction of ThT fluorescence” in the assay with Aβ(1-40) [4] (ligand/Aβ ratio 5, compared with 1:1, 1.5 hours at 37°C (Fig. 9)) and “approximately the same result as a ligand/Aβ ratio of 5” in the assay on Aβ(1-40) [4] (ligand/Aβ ratio 10, 1.5 hours at 37°C (Fig. 9)). Further, the mean survival time entry is recorded as “increased the mean survival time” in assay [5] (134 µM in the food, 29°C and high humidity (Fig. 12)); “prolonged mean survival time” in assay [5] (650 µM in the food, 28°C and low humidity, p=0.0035 (Fig. 11)). In addition, in assay [5] (fed from the larval stage, compared to untreated flies, two different experimental conditions), the longevity result is “significant increase in longevity”. The “effects on mean survival (longevity)” value in assay [6] is listed as “absence of a statistically significant difference”.
